Some results are limits rather than exact numbers.

Chain of NR2B (Q00960 27-1482, other chains not shown): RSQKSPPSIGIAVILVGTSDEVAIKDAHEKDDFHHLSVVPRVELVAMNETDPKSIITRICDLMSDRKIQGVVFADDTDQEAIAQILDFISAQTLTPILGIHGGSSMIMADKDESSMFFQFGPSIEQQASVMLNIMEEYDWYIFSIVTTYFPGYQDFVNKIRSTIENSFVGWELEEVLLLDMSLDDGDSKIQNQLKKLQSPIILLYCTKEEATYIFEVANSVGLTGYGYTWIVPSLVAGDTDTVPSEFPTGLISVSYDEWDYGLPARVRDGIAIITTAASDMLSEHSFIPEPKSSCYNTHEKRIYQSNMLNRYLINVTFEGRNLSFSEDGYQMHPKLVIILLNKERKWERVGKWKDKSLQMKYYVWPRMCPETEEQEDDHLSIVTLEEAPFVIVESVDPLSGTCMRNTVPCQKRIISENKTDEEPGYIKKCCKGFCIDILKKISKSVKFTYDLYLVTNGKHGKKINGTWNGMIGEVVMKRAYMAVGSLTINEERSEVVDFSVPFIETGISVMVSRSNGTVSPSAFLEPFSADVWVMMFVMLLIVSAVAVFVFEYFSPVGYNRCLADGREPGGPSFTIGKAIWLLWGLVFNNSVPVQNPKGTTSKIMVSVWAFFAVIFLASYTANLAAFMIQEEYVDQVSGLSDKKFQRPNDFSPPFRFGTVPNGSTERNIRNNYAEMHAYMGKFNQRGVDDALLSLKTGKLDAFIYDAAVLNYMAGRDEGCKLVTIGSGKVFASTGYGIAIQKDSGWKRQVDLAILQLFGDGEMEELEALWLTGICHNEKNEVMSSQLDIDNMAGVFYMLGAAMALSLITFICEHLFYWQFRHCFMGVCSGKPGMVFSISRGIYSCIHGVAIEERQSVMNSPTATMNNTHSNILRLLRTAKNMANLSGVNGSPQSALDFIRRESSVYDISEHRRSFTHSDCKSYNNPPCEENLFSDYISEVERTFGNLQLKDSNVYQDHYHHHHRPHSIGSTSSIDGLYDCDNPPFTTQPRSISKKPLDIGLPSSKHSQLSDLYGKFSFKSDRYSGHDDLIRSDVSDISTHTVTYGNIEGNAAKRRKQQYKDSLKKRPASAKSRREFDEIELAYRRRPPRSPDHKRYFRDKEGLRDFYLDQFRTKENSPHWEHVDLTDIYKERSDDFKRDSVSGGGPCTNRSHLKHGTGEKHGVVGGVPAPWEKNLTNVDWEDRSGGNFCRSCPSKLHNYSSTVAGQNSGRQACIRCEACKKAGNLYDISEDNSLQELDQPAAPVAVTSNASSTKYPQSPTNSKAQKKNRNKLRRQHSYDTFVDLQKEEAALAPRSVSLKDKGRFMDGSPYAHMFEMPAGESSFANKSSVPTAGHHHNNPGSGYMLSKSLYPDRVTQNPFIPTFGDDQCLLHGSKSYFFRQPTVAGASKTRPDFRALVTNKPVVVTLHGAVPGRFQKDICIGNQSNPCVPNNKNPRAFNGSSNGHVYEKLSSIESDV

This assay has as its target NR2B (Rattus norvegicus (Rat), UniProt Q00960). The assay is described as follows: NR2B rat cortical neuron calcium influx assay. The class given is cell-based. To be noted: rat cortical neurons, glutamate and glycine stimulated calcium influx. From the text:
Example 1: NR2B Rat Cortical Neuron Calcium Influx Assay Protocol
Embryonic day 18 timed pregnant Sprague Dawley rats were euthanized according to Institutional Animal Care and Use Committee (IACUC) protocol. After cutting medially through the skin and exposing the uterus and embryos, fetuses were removed and placed in cold Hibernate medium. Each embryo's brain was extracted and cerebral cortices were isolated by removing the midbrain and meninges. The dissected cortices were then dissociated into the neurons using papain dissociation system (Worthington Biochemical Corporation) according the manufacturer's protocol.
Dissociated neurons were counted and plated into 384-well poly-D-lysine coated plates (Corning® BioCoat™) at a density of 20,000 cells/well in 30 μL of Neurobasal/B27 complete medium. Neurons were cultured at 37° C. for 2 days. On the assay day, medium was removed and cells were incubated with 20 μL/well of calcium dye (Calcium 6 Assay Kit, Molecular Devices) suspended in HBSS with 1.8 mM Ca^2+ (Ca-HBSS) according to the manufacturer's instruction.
Compounds of interest from 10 mM stock were serially diluted into 3× of desired concentrations in 1.8 mM Ca-HBSS, and 10 μL were added to the wells. Compound and the neurons were incubated at 37° C. for 2 hours in the dark.
On FDSS7000EX (Hamamatsu Photonics), a fluorescence measuring instrument, 10 μL of 4× ligand solution containing glutamate and glycine made in 1.8 mM Ca^2+-HBSS were added to each well. The fluorescent signals were collected before and after the addition of ligands for a total of 2 minutes. The data were converted to a ratio of the peak fluorescence to the fluorescence at the beginning of the measurement.
Each data point was measured in duplicates. Dose response curves were used to identify IC50 and maximal inhibition values. IC50 represents the concentration in μM of compound at which there is a half-maximal compound effect. Maximal inhibition of a compound is expressed as a percent of the highest inhibition of activity over a no compound control.
In general, IC50 refers to the point on the concentration scale where inhibition reaches its midpoint. Turning to `O=C1CCc2cc([C@H](O)CN3C[C@H]4C[C@H](Oc5c(F)cccc5F)C[C@@]4(O)C3)ccc2N1` (single isomer, unassigned) [Example 27B], the IC50 was 290 nM.
Take `O=c1[nH]c2ccc([C@H](O)CN3C[C@H]4C[C@H](Oc5ccccc5)C[C@@]4(O)C3)cc2o1` (single isomer, unassigned) [Example 39B]: the IC50 is 86 nM.
As for `O=C1Cc2cc([C@@H](O)CN3C[C@H]4C[C@H](Oc5ccccc5)[C@H](O)[C@@]4(O)C3)ccc2N1` [Example 3C, 5-((R)-2-((3aS,4S,5S,6aR)-3a,4-dihydroxy-5-phenoxyhexahydrocyclopenta[c]pyrrol-2(1H)-yl)-1-hydroxyethyl)indolin-2-one], the IC50 is 400 nM.
Under `O=C1CCc2cc([C@H](O)CN3C[C@@H]4C[C@@H](Oc5ccc(F)cc5F)C[C@]4(O)C3)ccc2N1` (single isomer, unassigned) [Example 25D] stands 0.22 nM; under `O=C1CCc2cc([C@@H](O)CN3C[C@H]4C[C@H](Oc5ccc(F)cc5)C[C@@]4(O)C3)ccc2N1` (single isomer, unassigned) [Example 22A], 23 nM; under `CC1(C)Cc2cc([C@H](O)CN3C[C@H]4C[C@H](Oc5ccccc5)C[C@@]4(O)C3)ccc2NC1=O` (single isomer, unassigned) [Example 11B], 2.6 nM.
Under `O=c1[nH]c2ccc([C@H](O)CN3C[C@H]4C[C@H](Oc5ccccc5F)C[C@@]4(O)C3)cc2o1` (single isomer, unassigned) [Example 40B] stands 28 nM; under `O=c1[nH]c2c(F)cc([C@@H](O)CN3C[C@H]4C[C@H](Oc5ccccc5)C[C@@]4(O)C3)cc2cc1F` (single isomer, unassigned) [Example 20A], 2 nM; under `O=C1CCc2cc([C@H](O)CN3C[C@H]4C[C@H](Oc5ccc(F)cc5F)C[C@@]4(O)C3)ccc2N1` (single isomer, unassigned) [Example 25B], 14 nM.
Under `O=C1CCc2cc([C@H](O)CN3C[C@H]4C[C@H](Oc5ccccc5F)C[C@@]4(O)C3)ccc2N1` [Example 5B, 6-((S)-2-((3aS,5S,6aR)-5-(2-fluorophenoxy)-3a-hydroxyhexahydrocyclopenta[c]pyrrol-2(1H)-yl)-1-hydroxyethyl)-3,4-dihydroquinolin-2(1H)-one] stands 130 nM; under `O=C1COCc2cc([C@H](O)CN3C[C@H]4C[C@H](Oc5ccccc5)C[C@@]4(O)C3)cc(F)c2N1` (single isomer, unassigned) [Example 32B], 600 nM.
`O=C1CCc2cc([C@H](O)CN3C[C@H]4C[C@H](Oc5ccccc5F)C[C@@]4(O)C3)cc(F)c2N1` (single isomer, unassigned) [Example 6B]: the IC50 is 1060 nM.
Under `O=C1CCc2cc([C@H](O)CN3C[C@@H]4C[C@@H](Oc5ccc(F)cc5)C[C@]4(O)C3)ccc2N1` (single isomer, unassigned) [Example 22D] stands 1.6 nM.
For the compound `O=C1Nc2c(cc([C@H](O)CN3C[C@H]4C[C@H](Oc5ccccc5)C[C@@]4(O)C3)c(F)c2F)CO1` (single isomer, unassigned) [Example 38B], the IC50 is 7.8 nM.
Under `O=C1Cc2cc([C@H](O)CN3C[C@H]4C[C@H](Oc5ccccc5)[C@H](O)[C@@]4(O)C3)ccc2N1` [Example 3D, 5-((S)-2-((3aS,4S,5S,6aR)-3a,4-dihydroxy-5-phenoxyhexahydrocyclopenta[c]pyrrol-2(1H)-yl)-1-hydroxyethyl)indolin-2-one] stands 75 nM.
Consider `O=C1Nc2c(F)cc([C@@H](O)CN3C[C@H]4C[C@H](Oc5ccccc5)C[C@@]4(O)C3)cc2C[C@@H]1F` [Example 19], for which the IC50 came to 8.7 nM.
As for `O=C1CCc2cc([C@H](O)CN3C[C@H]4C[C@H](Oc5cccc(F)c5)C[C@@]4(O)C3)ccc2N1` (single isomer, unassigned) [Example 23B], the IC50 was determined as 280 nM.
Under `O=c1[nH]c2ccc([C@@H](O)CN3C[C@H]4C[C@H](Oc5ccccc5F)C[C@@]4(O)C3)cc2o1` (single isomer, unassigned) [Example 40A] stands 6.9 nM; under `O=C1CCc2cc([C@@H](O)CN3C[C@H]4C[C@H](Oc5cccc(F)c5)C[C@@]4(O)C3)ccc2N1` (single isomer, unassigned) [Example 23A], 33 nM; under `O=C1Nc2c(F)cc([C@H](O)CN3C[C@H]4C[C@H](Oc5ccccc5)C[C@@]4(O)C3)c(F)c2CO1` (single isomer, unassigned) [Example 37B], 6.5 nM.
Under `O=C1CCc2cc([C@H](O)CN3C[C@H]4C[C@H](Oc5ccc(F)cc5)C[C@@]4(O)C3)ccc2N1` (single isomer, unassigned) [Example 22B] stands 420 nM.
For `O=C1CCCc2cc([C@H](O)CN3C[C@H]4C[C@H](Oc5ccccc5F)C[C@@]4(O)C3)ccc2N1` (single isomer, unassigned) [Example 43B], the IC50 turned out to be 1.2 nM.
Under `O=C1CCCc2cc([C@H](O)CN3C[C@H]4C[C@H](Oc5ccccc5)C[C@@]4(O)C3)cc(F)c2N1` (single isomer, unassigned) [Example 30B] stands 17 nM; under `O=C1CCc2cc([C@H](O)CN3C[C@H]4C[C@H](Oc5cc(F)ccc5F)C[C@@]4(O)C3)ccc2N1` (single isomer, unassigned) [Example 26B], 470 nM.
As for `O=c1[nH]c2ccc([C@@H](O)CN3C[C@H]4C[C@H](Oc5ccccc5)C[C@@]4(O)C3)cc2o1` (single isomer, unassigned) [Example 39A], the IC50 turned out to be 26 nM.
Under `O=C1CCc2cc([C@@H](O)CN3C[C@H]4C[C@H](Oc5cccc(F)c5F)C[C@@]4(O)C3)ccc2N1` (single isomer, unassigned) [Example 24A] stands 16 nM; under `O=C1Nc2ccc([C@H](O)CN3C[C@H]4C[C@H](Oc5ccccc5F)C[C@@]4(O)C3)cc2CCO1` (single isomer, unassigned) [Example 12B], 0.25 nM; under `O=C1CCc2cc([C@@H](O)CN3C[C@H]4C[C@H](Oc5c(F)cccc5F)C[C@@]4(O)C3)ccc2N1` (single isomer, unassigned) [Example 27A], more than 1100 nM.
With `O=C1CCc2cc([C@H](O)CN3C[C@H]4C[C@H](Oc5cccc(F)c5F)C[C@@]4(O)C3)ccc2N1` (single isomer, unassigned) [Example 24B], the IC50 worked out at 57 nM.
For the compound `O=C1CCc2cc([C@@H](O)CN3C[C@H]4C[C@H](Oc5ccc(F)cc5F)C[C@@]4(O)C3)ccc2N1` (single isomer, unassigned) [Example 25A], the IC50 is more than 1100 nM.
Take `O=C1CCc2cc([C@@H](O)CN3C[C@H]4C[C@H](Oc5cc(F)ccc5F)C[C@@]4(O)C3)ccc2N1` (single isomer, unassigned) [Example 26A]: the IC50 was 250 nM.

For the origin of these results see patent publication US20240208953A1, “"Cyclopenta[c]pyrrol Negative Allosteric Modulators of NR2B"” (Novartis AG, priority 2021, published 2024).
